Measurements: BindingDB's records for doi:10.1021/acschembio.6b00782 (University of Michigan, 2017)

Experiments:
[1] = biological target: T1, Paired box protein Pax-2 [1-81] (Human, UniProt Q02962); test: Biolayer Interferometry Binding Assay
T1 construct: 1-81
Protocol: (§1) After biotinylation, the protein was bound to saturation to the biosensor of an Octet RED Multichannel platform (ForteBio). All binding and equilibration was done in PBS with 0.1% DMSO. For binding to the compound, sensors were incubated for 300s in EG1 at the following concentrations: 0.5, 1, 2, 4, 8, 16, 31, 62, 125, and 250 μM. Disassociation was then measured for 350 s in PBS to determine affinity constants. Kd is calculated from Kon and Koff.

[2] = biological target: T1, Paired box protein Pax-2 [1-81]; test: Biolayer Interferometry Binding Assay; remark: listed apart in the source
Protocol: as §1, with “steady state analysis.” for “Kon and Koff.”

T1 sequence (Q02962 1-81): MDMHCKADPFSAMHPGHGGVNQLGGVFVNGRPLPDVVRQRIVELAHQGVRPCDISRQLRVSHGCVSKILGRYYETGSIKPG

Kd [1]: 1350 nM
Kd [2]: 1500 nM
SMILES: COc1ccccc1C(=O)Nc1ccc(C(=O)Nc2ccccc2C(=O)O)cc1 [EG1]
